From ChEMBL document CHEMBL1136842, “5-Nitrofuran-2-yl derivatives: synthesis and inhibitory activities against growing and dormant mycobacterium species” (Bioorg Med Chem Lett, 2009)
Values after ≈ are worked out from the molar mass of the structure shown.

Tests used:
[1] = Ratio of IC50 for african green monkey Vero cells to MIC for Mycobacterium tuberculosis H37Rv; type: functional
[2] = tested on: Mycolicibacterium smegmatis; assay: Antimycobacterial activity against log-phase culture of Mycobacterium smegmatis ATCC 14468 by agar dilution method; type: functional
[3] = tested on: Mycolicibacterium smegmatis; assay: Antimycobacterial activity against Mycobacterium smegmatis ATCC 14468 by agar dilution method; type: functional
[4] = tested on: Mycobacterium kansasii; assay: Antimycobacterial activity against Mycobacterium kansasii MTCC 3058 by agar dilution method; type: functional
[5] = tested on: Mycobacterium tuberculosis; assay: Antimycobacterial activity against Mycobacterium tuberculosis H37Rv by agar dilution method; type: functional
[6] = tested on: Vero; assay: Cytotoxicity against african green monkey Vero cells after 72 hrs by MTT assay; type: cell-based; settings: Chlorocebus sabaeus
[7] = tested on: Mycobacterium tuberculosis; assay: Antimycobacterial activity against log-phase culture of Mycobacterium tuberculosis H37Rv by agar dilution method; type: functional
[8] = tested on: Mycolicibacterium vaccae; assay: Antimycobacterial activity against Mycobacterium vaccae MTCC 997 by agar dilution method; type: functional
[9] = tested on: Mycolicibacterium smegmatis; assay: Antimycobacterial activity against 6-week-starved culture of Mycobacterium smegmatis ATCC 14468 by agar dilution method; type: functional
[10] = tested on: Mycolicibacterium fortuitum; assay: Antimycobacterial activity against Mycobacterium fortuitum MTCC 951 by agar dilution method; type: functional
[11] = tested on: Mycolicibacterium phlei; assay: Antimycobacterial activity against Mycobacterium phlei MTCC 1724 by agar dilution method; type: functional
[12] = tested on: Mycobacterium tuberculosis; assay: Antimycobacterial activity against 6-week-starved culture of Mycobacterium tuberculosis H37Rv by agar dilution method; type: functional

## O=[N+]([O-])c1ccc(/C=N/NC(=S)Nc2ncc(Br)cc2Br)o1
[1]
  Ratio: 632.2
[2]
  MIC: 6.9 µM (≈ 3.1 µg/mL)
[3]
  MIC: 6.9 µM (≈ 3.1 µg/mL)
[4]
  MIC: 1.7 µM (≈ 0.763 µg/mL)
[5]
  MIC: 0.22 µM (≈ 0.0988 µg/mL)
[6]
  IC50: 139 µM
[7]
  MIC: 0.22 µM (≈ 0.0988 µg/mL)
[8]
  MIC: 3.4 µM (≈ 1.53 µg/mL)
[9]
  MIC: 124 µM (≈ 55.8 µg/mL)
[10]
  MIC: 3.4 µM (≈ 1.53 µg/mL)
[11]
  MIC: 6.9 µM (≈ 3.1 µg/mL)
[12]
  MIC: 13.9 µM (≈ 6.24 µg/mL)

## O=[N+]([O-])c1ccc(/C=N/NC(=S)Nc2ccc(Cl)cc2)o1
[2]
  MIC: 19.1 µM (≈ 6.2 µg/mL)
[3]
  MIC: 19.1 µM (≈ 6.2 µg/mL)
[4]
  MIC: 38.4 µM (≈ 12.5 µg/mL)
[5]
  MIC: 1.23 µM (≈ 0.399 µg/mL)
[6]
  IC50: > 192 µM
[8]
  MIC: 9.6 µM (≈ 3.12 µg/mL)
[9]
  MIC: 134 µM (≈ 43.4 µg/mL)
[10]
  MIC: 38.4 µM (≈ 12.5 µg/mL)
[11]
  MIC: 9.6 µM (≈ 3.12 µg/mL)

## Cc1cccnc1NC(=S)N/N=C/c1ccc([N+](=O)[O-])o1
[3]
  MIC: 20.5 µM (≈ 6.26 µg/mL)
[4]
  MIC: 5.1 µM (≈ 1.56 µg/mL)
[5]
  MIC: 5.1 µM (≈ 1.56 µg/mL)
[6]
  IC50: < 205 µM
[8]
  MIC: 20.5 µM (≈ 6.26 µg/mL)
[10]
  MIC: 10.2 µM (≈ 3.11 µg/mL)
[11]
  MIC: 10.2 µM (≈ 3.11 µg/mL)

## CCc1cccc(CC)c1NC(=S)N/N=C/c1ccc([N+](=O)[O-])o1
[3]
  MIC: 36 µM (≈ 12.5 µg/mL)
[4]
  MIC: 36 µM (≈ 12.5 µg/mL)
[5]
  MIC: 1.1 µM (≈ 0.381 µg/mL)
[6]
  IC50: > 180 µM
[7]
  MIC: 1.2 µM (≈ 0.416 µg/mL)
[8]
  MIC: 72.1 µM (≈ 25 µg/mL)
[10]
  MIC: 72.1 µM (≈ 25 µg/mL)
[11]
  MIC: 36 µM (≈ 12.5 µg/mL)
[12]
  MIC: 36 µM (≈ 12.5 µg/mL)

## O=[N+]([O-])c1ccc(/C=N/NC(=S)Nc2ccccc2)o1
[3]
  MIC: 172 µM (≈ 50 µg/mL)
[4]
  MIC: 5.3 µM (≈ 1.54 µg/mL)
[5]
  MIC: 10.7 µM (≈ 3.11 µg/mL)
[6]
  IC50: > 215 µM
[8]
  MIC: 43 µM (≈ 12.5 µg/mL)
[10]
  MIC: 43 µM (≈ 12.5 µg/mL)
[11]
  MIC: 10.7 µM (≈ 3.11 µg/mL)

## Cc1ccnc(NC(=S)N/N=C/c2ccc([N+](=O)[O-])o2)c1
[3]
  MIC: 20.5 µM (≈ 6.26 µg/mL)
[4]
  MIC: 5.1 µM (≈ 1.56 µg/mL)
[5]
  MIC: 2.6 µM (≈ 0.794 µg/mL)
[6]
  IC50: < 205 µM
[8]
  MIC: 2.6 µM (≈ 0.794 µg/mL)
[10]
  MIC: 5.1 µM (≈ 1.56 µg/mL)
[11]
  MIC: 5.1 µM (≈ 1.56 µg/mL)

## Cc1ccc(NC(=S)N/N=C/c2ccc([N+](=O)[O-])o2)cc1
[3]
  MIC: 41 µM (≈ 12.5 µg/mL)
[4]
  MIC: 20.5 µM (≈ 6.24 µg/mL)
[5]
  MIC: 5.1 µM (≈ 1.55 µg/mL)
[6]
  IC50: > 205 µM
[8]
  MIC: 41 µM (≈ 12.5 µg/mL)
[10]
  MIC: 41 µM (≈ 12.5 µg/mL)
[11]
  MIC: 2.5 µM (≈ 0.761 µg/mL)

## O=[N+]([O-])c1ccc(/C=N/NC(=S)Nc2ccccc2Br)o1
[3]
  MIC: 33.8 µM (≈ 12.5 µg/mL)
[4]
  MIC: 8.4 µM (≈ 3.1 µg/mL)
[5]
  MIC: 0.54 µM (≈ 0.199 µg/mL)
[6]
  IC50: > 169 µM
[7]
  MIC: 0.54 µM (≈ 0.199 µg/mL)
[8]
  MIC: 16.9 µM (≈ 6.24 µg/mL)
[10]
  MIC: 33.8 µM (≈ 12.5 µg/mL)
[11]
  MIC: 16.9 µM (≈ 6.24 µg/mL)
[12]
  MIC: 33.8 µM (≈ 12.5 µg/mL)

## Cc1ccc(NC(=S)N/N=C/c2ccc([N+](=O)[O-])o2)c(C)c1
[3]
  MIC: 314 µM (≈ 100 µg/mL)
[4]
  MIC: 9.8 µM (≈ 3.12 µg/mL)
[5]
  MIC: 2.45 µM (≈ 0.78 µg/mL)
[6]
  IC50: > 196 µM
[8]
  MIC: 39.2 µM (≈ 12.5 µg/mL)
[10]
  MIC: 39.2 µM (≈ 12.5 µg/mL)
[11]
  MIC: 4.9 µM (≈ 1.56 µg/mL)

## Cc1cccc(C)c1NC(=S)N/N=C/c1ccc([N+](=O)[O-])o1
[3]
  MIC: 39.2 µM (≈ 12.5 µg/mL)
[4]
  MIC: 39.2 µM (≈ 12.5 µg/mL)
[5]
  MIC: 4.9 µM (≈ 1.56 µg/mL)
[6]
  IC50: > 196 µM
[8]
  MIC: 39.2 µM (≈ 12.5 µg/mL)
[10]
  MIC: 39.2 µM (≈ 12.5 µg/mL)
[11]
  MIC: 9.8 µM (≈ 3.12 µg/mL)

## Cc1cc(C)nc(NC(=S)N/N=C/c2ccc([N+](=O)[O-])o2)c1
[2]
  MIC: 4.8 µM (≈ 1.53 µg/mL)
[3]
  MIC: 4.8 µM (≈ 1.53 µg/mL)
[4]
  MIC: 39.1 µM (≈ 12.5 µg/mL)
[5]
  MIC: 2.4 µM (≈ 0.766 µg/mL)
[6]
  IC50: < 196 µM
[8]
  MIC: 39.1 µM (≈ 12.5 µg/mL)
[9]
  MIC: 91.2 µM (≈ 29.1 µg/mL)
[10]
  MIC: 39.1 µM (≈ 12.5 µg/mL)
[11]
  MIC: 39.1 µM (≈ 12.5 µg/mL)

## Cc1ccc(C)c(NC(=S)N/N=C/c2ccc([N+](=O)[O-])o2)c1
[3]
  MIC: 157 µM (≈ 50 µg/mL)
[4]
  MIC: 78.5 µM (≈ 25 µg/mL)
[5]
  MIC: 1.2 µM (≈ 0.382 µg/mL)
[6]
  IC50: > 196 µM
[7]
  MIC: 1.1 µM (≈ 0.35 µg/mL)
[8]
  MIC: 2.4 µM (≈ 0.764 µg/mL)
[10]
  MIC: 78.5 µM (≈ 25 µg/mL)
[11]
  MIC: 4.8 µM (≈ 1.53 µg/mL)
[12]
  MIC: 154 µM (≈ 49 µg/mL)

## O=[N+]([O-])c1ccc(/C=N/NC(=S)Nc2ccccn2)o1
[3]
  MIC: 48.4 µM (≈ 14.1 µg/mL)
[4]
  MIC: 12.1 µM (≈ 3.52 µg/mL)
[5]
  MIC: 12.1 µM (≈ 3.52 µg/mL)
[6]
  IC50: 214 µM
[8]
  MIC: 24.2 µM (≈ 7.05 µg/mL)
[10]
  MIC: 48.4 µM (≈ 14.1 µg/mL)
[11]
  MIC: 6 µM (≈ 1.75 µg/mL)

## O=[N+]([O-])c1ccc(/C=N/NC(=S)Nc2ccc(Cl)cn2)o1
[2]
  MIC: 2.4 µM (≈ 0.782 µg/mL)
[3]
  MIC: 2.4 µM (≈ 0.782 µg/mL)
[4]
  MIC: 4.8 µM (≈ 1.56 µg/mL)
[5]
  MIC: 1.2 µM (≈ 0.391 µg/mL)
[6]
  IC50: 192 µM
[7]
  MIC: 1.2 µM (≈ 0.391 µg/mL)
[8]
  MIC: 4.8 µM (≈ 1.56 µg/mL)
[9]
  MIC: 43.2 µM (≈ 14.1 µg/mL)
[10]
  MIC: 38.3 µM (≈ 12.5 µg/mL)
[11]
  MIC: 38.3 µM (≈ 12.5 µg/mL)
[12]
  MIC: 38.3 µM (≈ 12.5 µg/mL)

## COc1ccc(NC(=S)N/N=C/c2ccc([N+](=O)[O-])o2)c(OC)c1
[3]
  MIC: 35.6 µM (≈ 12.5 µg/mL)
[4]
  MIC: 35.6 µM (≈ 12.5 µg/mL)
[5]
  MIC: 4.4 µM (≈ 1.54 µg/mL)
[6]
  IC50: > 178 µM
[8]
  MIC: 71.1 µM (≈ 24.9 µg/mL)
[10]
  MIC: 35.6 µM (≈ 12.5 µg/mL)
[11]
  MIC: 4.4 µM (≈ 1.54 µg/mL)

## COc1ccc(NC(=S)N/N=C/c2ccc([N+](=O)[O-])o2)cc1
[3]
  MIC: 39 µM (≈ 12.5 µg/mL)
[4]
  MIC: 39 µM (≈ 12.5 µg/mL)
[5]
  MIC: 9.7 µM (≈ 3.11 µg/mL)
[6]
  IC50: > 195 µM
[8]
  MIC: 78 µM (≈ 25 µg/mL)
[10]
  MIC: 39 µM (≈ 12.5 µg/mL)
[11]
  MIC: 4.85 µM (≈ 1.55 µg/mL)

## NS(=O)(=O)c1ccc(NC(=S)N/N=C/c2ccc([N+](=O)[O-])o2)cc1
[2]
  MIC: 8.4 µM (≈ 3.1 µg/mL)
[3]
  MIC: 8.4 µM (≈ 3.1 µg/mL)
[4]
  MIC: 33.8 µM (≈ 12.5 µg/mL)
[5]
  MIC: 2.1 µM (≈ 0.776 µg/mL)
[6]
  IC50: < 169 µM
[8]
  MIC: 2.1 µM (≈ 0.776 µg/mL)
[9]
  MIC: 75.6 µM (≈ 27.9 µg/mL)
[10]
  MIC: 33.8 µM (≈ 12.5 µg/mL)
[11]
  MIC: 16.8 µM (≈ 6.21 µg/mL)

## O=C(O)c1cn(C2CC2)c2cc(N3CCNCC3)c(F)cc2c1=O [CIPROFLOXACIN]
[3]
  MIC: 2.35 µM (≈ 0.779 µg/mL)
[4]
  MIC: 9.45 µM (≈ 3.13 µg/mL)
[6]
  IC50: > 188 µM

## NNC(=O)c1ccncc1 [ISONIAZID]
[2]
  MIC: 45.6 µM (≈ 6.25 µg/mL)
[3]
  MIC: 45.6 µM (≈ 6.25 µg/mL)
[4]
  MIC: 182 µM (≈ 25 µg/mL)
[5]
  MIC: 0.66 µM (≈ 0.0905 µg/mL)
[6]
  IC50: > 456 µM
[7]
  MIC: 0.66 µM (≈ 0.0905 µg/mL)
[8]
  MIC: 182 µM (≈ 25 µg/mL)
[9]
  MIC: > 729 µM
[10]
  MIC: 22.8 µM (≈ 3.13 µg/mL)
[11]
  MIC: 91.2 µM (≈ 12.5 µg/mL)
[12]
  MIC: 729 µM (≈ 100 µg/mL)

## CO[C@H]1/C=C/O[C@@]2(C)Oc3c(C)c(O)c4c(O)c(c(/C=N/N5CCN(C)CC5)c(O)c4c3C2=O)NC(=O)/C(C)=C\C=C\[C@H](C)[C@H](O)[C@@H](C)[C@@H](O)[C@@H](C)[C@H](OC(C)=O)[C@@H]1C [RIFAMPIN]
[2]
  MIC: 1.89 µM (≈ 1.56 µg/mL)
[3]
  MIC: 1.89 µM (≈ 1.56 µg/mL)
[4]
  MIC: 7.59 µM (≈ 6.25 µg/mL)
[5]
  MIC: 0.23 µM (≈ 0.189 µg/mL)
[6]
  IC50: > 75.9 µM
[7]
  MIC: 0.23 µM (≈ 0.189 µg/mL)
[8]
  MIC: 3.8 µM (≈ 3.13 µg/mL)
[9]
  MIC: 22.6 µM (≈ 18.6 µg/mL)
[10]
  MIC: 1.89 µM (≈ 1.56 µg/mL)
[11]
  MIC: 30.4 µM (≈ 25 µg/mL)
[12]
  MIC: 15.2 µM (≈ 12.5 µg/mL)
